According to US7737182B2, “Pharmaceuticals for xerosis” (Taisho Pharmaceutical Co., Ltd., priority 2001, dated 2010):

Tests used:
human platelets = experiment: Suppression of ADP-induced aggregation of human platelets; type: cell-based; conditions: human platelet-rich plasma, ADP (3 μM), Born method
Experimental: (A) Using the active ingredient of the present invention (compound No. 7) and PGD2 as a control for comparison, prostaglandin D receptor binding selectivity was determined with reference to the platelet aggregation suppressing action as the prostaglandin D receptor agonist action. 1. Human Platelet Aggregation Suppressing Action Suppression of ADP-Induced Aggregation of Human Platelets
The test was performed on purchased platelet-rich plasma (PRP) (6×10^8 platelets/mL) and platelet aggregation was measured based on the Born method (Nature, vol. 194, p. 927, 1962). To 100 μL of PRP, 5 μL of a 1 nM-3 μM test drug solution in ethanol was added and the mixture was incubated at 37° C. for 1 minute with stirring at 1000 rpm. To the resulting mixture, 5 μL of an aggregation inducer [ADP (3 μM)] was added to induce platelet aggregation and a maximum percent aggregation (a maximum change in light transmittance that occurred within 5 minutes after the induction of platelet aggregation) was determined by an aggregometer. The percent suppression of aggregation by each test drug was calculated from the maximum percent aggregation by the test drug as relative to the maximum percent aggregation by ethanol instead of the test drug solution and IC50 values were determined from the constructed dose-response curve.

guinea pig platelets = experiment: Suppression of ADP-induced aggregation of guinea pig platelets; type: cell-based; conditions: guinea pig platelet-rich plasma, ADP (3 μM)
Experimental: Ten-week-old Hartley male guinea pigs were anesthetized with pentobarbital (30 mg/kg, i.p. injected) and a total of 20 mL of blood was sampled into a syringe containing 2.0 mL of 3.8% sodium citrate. The blood was immediately centrifuged at 900 rpm for 10 minutes at 20° C. to recover the supernatant PRP. By further centrifugation at 3000 rpm for 10 minutes at 20° C., the supernatant PPP was recovered. The platelet count of PRP was diluted with PPP to 30×10^4 platelets/μL for subsequent use.
For platelet aggregation measurement, a platelet aggregation measuring instrument (PAM-8C) was employed. To 274 μL of PRP, 1 μL of a 0.287-95.7 nM test drug solution in ethanol was added and the mixture was incubated at 37° C. for 3 minutes with stirring at 1000 rpm. After the incubation, 25 μL of ADP (3 μM) was added to induce platelet aggregation and a maximum percent aggregation for 5 minutes was measured.
The percent suppression of aggregation by each test drug was calculated from the maximum percent aggregation by the test drug as relative to the maximum percent aggregation by ethanol instead of the test drug solution and IC50 values were determined from the constructed dose-response curve.

prostaglandin D receptor = biological target: T1, prostaglandin D receptor (Homo sapiens, UniProt Q13258); experiment: Antagonism by BW A868C of the suppression of ADP-induced human platelet aggregation; type: cell-based; conditions: final concentration 1000 nmol/L, human PRP, ADP 3 μmol/L
T1 construct: separate the supernatant (PRP, or platelet-rich plasma); endogenous in cells; host or cells: human platelets (platelet-rich plasma from healthy male donors)
T1 sequence (Q13258 1-359): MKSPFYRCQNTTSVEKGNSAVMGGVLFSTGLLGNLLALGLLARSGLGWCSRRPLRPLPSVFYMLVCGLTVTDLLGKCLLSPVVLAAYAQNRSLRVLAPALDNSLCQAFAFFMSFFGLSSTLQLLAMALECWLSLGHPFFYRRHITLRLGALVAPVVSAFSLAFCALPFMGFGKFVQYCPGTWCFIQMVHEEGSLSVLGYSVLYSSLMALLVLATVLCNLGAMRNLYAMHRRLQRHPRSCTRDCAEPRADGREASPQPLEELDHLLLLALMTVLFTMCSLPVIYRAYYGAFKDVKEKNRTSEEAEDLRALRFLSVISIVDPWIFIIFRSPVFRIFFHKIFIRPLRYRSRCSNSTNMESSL
Experimental: The prostaglandin D receptor selective antagonist used in the test was ((+/−)-3-benzyl-5-(6-carboxyhexyl)-1-(2-cyclohexyl-2-hydroxyethylamino)-hydantoin) (hereunder designated BW A868C) (Sigma-Aldrich Japan K.K.)
BW A868C was diluted with ethanol to final concentrations of 0.03 μmol/L, 0.1 μmol/L, 0.3 μmol/L, 1 μmol/L, 3 μmol/L and 10 μmol/L.
Compound No. 7 and PGD2 were diluted with ethanol to 287 nmol/L and 300 nmol/L, respectively, for subsequent use.
Blood was taken from the cubital veins of human healthy males and sampled into a tube containing 3.13% sodium citrate. The blood sample was centrifuged at 1,000 rpm for 10 minutes at 20° C. to separate the supernatant (PRP, or platelet-rich plasma) and the residue was further centrifuged at 3,000 rpm for 10 minutes at 20° C. to separate the supernatant (PPP, or platelet-poor plasma). The platelet count of PRP was appropriately diluted with PPP to 30×10^4 platelets/μL for subsequent use.
Platelet aggregation was measured with a platelet aggregation measuring instrument (PAM-8C; MC MEDICAL Co., LTD.) by the Born method (Nature, vol. 194, p. 927, 1962). A portion (273 μL) of PRP (for the BW A868C groups, 1 μL of BW A868C was added at varying concentrations) was preincubated at 37° C. for 3 minutes with stirring at 1,000 rpm. After the preincubation, 1 μL of ethanol or a test substance (compound No. 7: final concentration at 95.7 nmol/L; PGD2: final concentration at 1000 nmol/L) was added and the mixture was incubated at 37° C. for 3 minutes with stirring at 1000 rpm. After the incubation, 25 μL of ADP (final concentration at 3 μmol/L) was added to induce platelet aggregation and a maximum percent aggregation for 5 minutes was measured.

BALB/c male mice [1] = experiment: Mouse skin's barrier function, treatment test, TEWL (Test Example 5); type: in vivo; conditions: barrier destroyed with acetone/diethyl ether; 0.01% in ethanol, 100 μL, once a day for 2 days
Experimental: Six-week-old BALB/c male mice in groups of eight were shaven in a rostral dorsolateral area of 4 cm^2 (2 cm×2 cm) with electric clippers and the shaven area was covered for 60 seconds with an absorbent cotton (2 cm×2 cm) impregnated with a 1:1 liquid mixture of acetone and diethyl ether. This treatment for destroying the skin's barrier function was performed for 3 consecutive days on once-a-day basis. Starting on the day next to completion of the treatment for barrier destruction at day 3, a solvent (ethanol, 100 μL) or a drug dissolved in the solvent (compound No. 7, PGD2, PGF2α, or PGE1, all being at 0.01% in an amount of 100 μL) was applied to the barrier destroyed site for 2 days on once-a-day basis. On the day next to the second application of the solvent or drug, the transepidermal water loss (TEWL) at the same site was measured with Tewameter (TM210 of Courage & Khazawa, Germany) to evaluate the drug's action.

BALB/c male mice [2] = experiment: Mouse skin's barrier function, preventive test, TEWL (Test Example 6); type: in vivo; conditions: cohabitation with dermatitic NC/Nga mice; 0.01% in ethanol, 100 μL, once a day for 7 days
Experimental: Six-week-old BALB/c male mice in groups of six were shaven in a rostral dorsolateral area of 4 cm^2 (2 cm×2 cm) with electric clippers and kept in the same cage as NC/Nga mice that had developed dermatitis. From the day next to the start of cohabitation, a solvent (ethanol, 100 μL) or a drug dissolved in the solvent (compound No. 7, PGD2, PGF2α, or PGE1, all being at 0.01% in an amount of 100 μL) was applied to the shaven site for 7 days on once-a-day basis.
On the day next to the seventh application of the solvent or drug, the transepidermal water loss (TEWL) at the same site was measured with Tewameter (TM210 of Courage & Khazawa, Germany) to evaluate the drug's action, with the solvent-applied group being used as the control group.

[3] = test system: Fifty-week-old BALB/c male mice; experiment: Aged mouse skin's barrier function, treatment test, TEWL (Test Example 7); type: in vivo; conditions: 50-week-old mice; 0.0001% in ethanol, 200 μL, once a day for 3 days
Experimental: Fifty-week-old BALB/c male mice (eight in each group) were shaven in a rostral dorsolateral area of 4 cm^2 (2 cm×2 cm) with electric clippers. Starting on the next day, a solvent (ethanol, 200 μL) or a drug dissolved in the solvent (compound No. 7 or PGD2, each being at 0.0001% in an amount of 200 μL) was applied to the shaven site for 3 days on once-a-day basis.
On the day next to the third application of the solvent or drug, TEWL at the same site was measured with Tewameter (TM210 of Courage & Khazawa, Germany) to evaluate the drug's action.

In the case of `CCCCC[C@H](O)/C=C/[C@H]1C(=O)C[C@H](O)[C@@H]1C/C=C\CCCC(=O)O` [PGD2, prostaglandin D2, reference compound], the IC50 (human platelets) is reported as 11 nM, the IC50 (guinea pig platelets) is reported as 54.3 ± 23 nM and the “platelet aggregation suppressing action compared with control group (ethanol)” value (prostaglandin D receptor) is reported as “significant platelet aggregation suppressing action”. For the same compound, the “transepidermal water loss (TEWL) compared to the solvent-applied control group” value (BALB/c male mice [1]) was “no significant difference from the control group”, the “transepidermal water loss (TEWL) compared to the control group” value (BALB/c male mice [2]) was “significant decrease in TEWL” and the “transepidermal water loss (TEWL) compared to the control group” value [3] was “no significant difference from the control group”.
